Measurements reported in PubChem BioAssay (NCI).
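All cell lines were grown in 96-well plates and treated with compound for 48 hours. Definition used: TGI = concentration required for complete inhibition of growth.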

Experiments:
Assay in all cases: NCI anticancer screen, dose series, 48 h
OVCAR-8 ovarian = system: OVCAR-8 ovarian
HCT-116 colon = system: HCT-116 colon
MDA-N = system: MDA-N
SK-MEL-28 melanoma = system: SK-MEL-28 melanoma
EKVX NSCLC = system: EKVX NSCLC
A549 NSCLC = system: A549 NSCLC
RXF 393 renal = system: RXF 393 renal
UACC-257 melanoma = system: UACC-257 melanoma
MDA-MB-435 = system: MDA-MB-435
HL-60(TB) leukemia = system: HL-60(TB) leukemia
IGROV1 ovarian = system: IGROV1 ovarian
ACHN renal = system: ACHN renal
K-562 leukemia = system: K-562 leukemia
CCRF-CEM leukemia = system: CCRF-CEM leukemia
UO-31 renal = system: UO-31 renal
NCI-H23 lung = system: NCI-H23 lung
NCI-H460 lung = system: NCI-H460 lung
NCI-H226 lung = system: NCI-H226 lung
A498 renal = system: A498 renal

| SMILES | TGI (OVCAR-8 ovarian) [µM] | TGI (HCT-116 colon) [µM] | TGI (MDA-N) [µM] | TGI (SK-MEL-28 melanoma) [µM] | TGI (EKVX NSCLC) [µM] | TGI (A549 NSCLC) [µM] | TGI (RXF 393 renal) [µM] | TGI (UACC-257 melanoma) [µM] | TGI (MDA-MB-435) [µM] | TGI (HL-60(TB) leukemia) [µM] | TGI (IGROV1 ovarian) [µM] | TGI (ACHN renal) [µM] | TGI (K-562 leukemia) [µM] | TGI (CCRF-CEM leukemia) [µM] | TGI (UO-31 renal) [µM] | TGI (NCI-H23 lung) [µM] | TGI (NCI-H460 lung) [µM] | TGI (NCI-H226 lung) [µM] | TGI (A498 renal) [µM] |
| --- | --- | --- | --- | --- | --- | --- | --- | --- | --- | --- | --- | --- | --- | --- | --- | --- | --- | --- | --- |
| COc1ccc2cc(CNCCCCCCCCCCCCNCc3ccc4cc(OC)ccc4c3)ccc2c1 | 32.4 | 32.8 | > 54.4 | > 56 | 37.6 | > 54.8 | 28.7 | 36.3 | > 55.5 | 34.9 | 29.9 | 36.6 | > 50 | > 37.4 | 35.8 | 34.3 | 35.8 | 32.5 | 31.9 |
| O=c1[nH]c(C23CC4CC(CC(C4)C2)C3)cc2c1c(=O)oc1ccccc12 | 15 | 12.4 | > 59.3 | 20.6 | 3.99 | 9.71 | 7.71 | > 76.2 | > 60.5 | > 100 | 13 | 10.6 | > 35.8 | 42.7 | 4.23 | 23 | 11.6 | 5.75 | 5.11 |
| CCOC(=O)C(C(=O)OCC)=C1NC2(c3ccccc3Nc3ccc(C)cc32)C(C#N)S1 (stereo not given) | 35 | 22 | 46.3 | 70.9 | 39.5 | 21.8 | 27.8 | 45.6 | 23.5 | 61.2 | 27.2 | 16.3 | 25.8 | > 100 | 17.8 | 12.3 | 12.7 | 25.3 | 29.4 |
| COc1cc(OCc2nc3ccccc3n3cccc23)cc(OC)c1OC | > 100 | > 60.5 | > 100 | > 90.5 | > 62.7 | > 100 | > 100 | > 60.9 | > 52.4 | 48.2 | > 100 | > 100 | 23.8 | 25.4 | > 89.6 | > 100 | > 100 | 52.4 | > 100 |
| CCOC(=O)C1=CN/C(=C(/C)C(=O)OC)SC1C(=O)OCC (stereo not given) | > 100 | > 100 | > 100 | > 100 | > 100 | > 100 | > 100 | > 100 | > 100 | > 100 | > 100 | > 100 | > 31.6 | > 100 | > 100 | > 100 | > 100 | > 100 | > 100 |
| Nc1nc(Cl)c(N)c(NCC2(CO)CCC2)n1 | > 100 | > 100 | > 100 | > 100 | > 100 | > 100 | > 100 | > 100 | > 100 | > 100 | > 100 | > 100 | > 100 | > 100 | > 100 | > 100 | > 100 | > 100 | > 100 |
| COCC(N=CN1CCCc2ccccc2[C@@H]1CCCCl)C(C)(C)C (stereo not given in full) | 40.7 | 9.48 | 68.2 | > 100 | 88.9 | 66.3 | 32.5 | 7.68 | 26.4 | 8.97 | 14.2 | 70 | 14.2 | > 100 | 33.2 | 21.1 | 97.2 | 23.9 | 33.5 |
| C=C1C(=O)C23CC1C[C@H](OC(C)=O)[C@H]2C1(C)C(OC(C)=O)C[C@H](O)C(C)(C)[C@H]1C(=O)[C@@H]3OC(C)=O (stereo not given in full) | 7.9 | 6.16 | 10.7 | 13.2 | 15.7 | 33.7 | 9.75 | 11 | 11.4 | 4.47 | 25.8 | 14.1 | > 21 | 7.65 | 9.75 | 15.2 | 33.4 | 43.3 | 29.7 |
| O=C(c1ccccc1)c1ccc2nc3n(c2c1)C(c1c(F)cccc1F)SC3 (stereo not given) | 98.4 | 13.5 | 3.43 | > 70.5 | > 48.4 | > 84.8 | 72.8 | 91.1 | 3.96 | > 100 | > 100 | 24.8 | > 100 | 37.6 | 56.5 | > 61.7 | 52.2 | > 79.2 | 13.5 |
| COc1cc(/C=C(\C#N)c2nc3ccccc3o2)ccc1O | 50 | 34.3 | > 100 | 58.1 | 49.6 | 43.4 | > 100 | > 100 | 41.6 | 55.3 | 38.1 | 46.9 | > 100 | > 100 | 85.9 | 70 | 48.4 | 49 | 34.8 |
